Data as given in patent US20260248799A1, “COMBINATIONS OF RETINALDEHYDE DEHYDROGENASE 1 (RALDH1) INHIBITORS AND IMMUNOSTIMULATORS AND METHODS USING SAME” (The Trustees of the University of Pennsylvania, priority 2023, published 2026).
Each block holds one molecule with its values, some of them ahead of it.

Tests used:
hALDHIA1 = target: T1, hALDHIA1 (Homo sapiens, UniProt P00352); assay: hALDH1A1 inhibition (Table 4); type: biochemical
T1 sequence (P00352 1-501): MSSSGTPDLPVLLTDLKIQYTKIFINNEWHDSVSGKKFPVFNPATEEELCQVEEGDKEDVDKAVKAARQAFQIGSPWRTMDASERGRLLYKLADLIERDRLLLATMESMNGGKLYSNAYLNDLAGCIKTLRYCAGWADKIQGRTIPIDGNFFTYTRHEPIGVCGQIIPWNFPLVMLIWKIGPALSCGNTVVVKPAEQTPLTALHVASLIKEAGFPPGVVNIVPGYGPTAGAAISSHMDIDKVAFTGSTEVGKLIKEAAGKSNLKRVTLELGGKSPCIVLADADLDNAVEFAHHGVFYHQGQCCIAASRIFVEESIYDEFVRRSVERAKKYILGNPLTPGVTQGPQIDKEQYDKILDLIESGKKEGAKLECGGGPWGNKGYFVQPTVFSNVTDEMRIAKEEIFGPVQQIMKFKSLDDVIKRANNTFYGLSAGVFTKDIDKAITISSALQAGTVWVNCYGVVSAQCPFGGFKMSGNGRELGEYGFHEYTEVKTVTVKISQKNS
Description: (§1) Compounds ALDH inhibitory effects of C-9125, C-9163, and C-9175 were evaluated in a number of cell lines, including MiaPaCa2 and OV90 cell lines, utilizing the AldeFlour assay described elsewhere herein (Table 4).

MiaPaCa2 cells = assay: AldeFlour assay in MiaPaCa2 cells; type: cell-based; conditions: Homo sapiens, MIA PaCa-2, read-out: MiaPaCa cells IC50
Text: (§2) The Aldefluor assay has been used to identify and isolate cells with high ALDH activities. This assay is based on the principle that ALDH can convert the ALDH-substrate, Bodipy-aminoacetaldehyde (BAAA) into Bodipy-aminoacetate (BAA) which is retained inside the cells. BAAA is uncharged and can diffuse freely into intact viable cells, however BAA cannot cross the membrane due to its net negative charge, which makes remain in the cells and the assay buffer prevents efflux of the BAA from the cells. Therefore, the amount of BAA fluorescence in cells is proportional to ALDH activity and can be measured using a flow cytometer. A specific inhibitor of ALDH, diethylaminobenzaldehyde (DEAB), is used for background fluorescence control.
as §1

human HCC lines = assay: Human HCC lines cocultured with pretreated macrophages; type: cell-based; conditions: macrophages exposed to BMS493
Description: (§3) FIGS. 24A-24E: Raldh1-INH blocks tumor supportive functions of monocytes and macrophages. FIG. 24A: Circulating primary human monocytes were collected from donors and cultured with MCSF (50 ng/mL) to generate macrophages. On day 3 of these cultures, DMSO or RA (100 nmol/L) was added to generate control monocyte-derived macrophages (Control-MoDM) or RA monocyte-derived macrophages (RA-MoDM), respectively. On day 7 of these cultures, macrophages were collected for each well after washing with 1×PBS, mixed with Huh7 cells at approximately 50:50 ratio, and the mix injected into the flanks of NU/J mice. Huh7 tumors cells that were not mixed with any macrophages before flank injection served as an additional control. Tumor volume was measured every 2 days (left graph). 19 days after tumor injection, mice were sacrificed and tumor weight (right graph) was measured. […] Three or more independent experiments were performed with at least three replicates per experimental group. Unpaired t test, two-tailed. […] Tumor growth was monitored daily (left graph). 13 days after tumor cell transplantation, mice were sacrificed and tumor weight measured (right graph). […] Three days later, cells were harvested, counted, and stained with PI for FCS analyses. […] Cell proliferation was measured by counting live cell numbers (y-axis). […] 72 hours later, the cells were washed, counted, and analyzed by FCS. […]

Huh7 tumors = Huh7 tumors in NU/J mice; type: in vivo, mouse; conditions: Huh7
Description: FIGS. 26A-26H: Raldh1-INH suppresses HCC growth by altering macrophage functions. FIG. 26A: Huh7 tumor-bearing NU/J mice were treated with C86 (i.p, 10 mg/kg) every day starting when tumor size was approximately 50 mm^3. Tumor volume was measured every 2 days. […] Three or more independent experiments were performed with at least three replicates per experimental group. Unpaired t test, two-tailed. FIG. 26B: AldeRed assay at endpoint on Huh7 tumor treated as described in FIG. 26A. […] Three or more independent experiments were performed with at least three replicates per experimental group. Unpaired t test, two-tailed. FIG. 26C: Huh7 tumor-bearing nude mice were treated with different dose of C86 every day. Tumor volume was measured every 2-3 days. […] Two independent experiments were performed with at least three replicates per experimental group. Unpaired t test, two-tailed. FIG. 26D: Body weight measured every 3-5 days for the experiment outlined in FIG. 26C. FIG. 26E: Parental Huh7 or RALDH1-KO Huh7 cells were implanted subcutaneously into NU/J mice and treated with C86 (i.p, 10 mg/kg) or vehicle (control) every day. […] Three or more independent experiments were performed with at least three replicates per experimental group. Unpaired t test, two-tailed. FIG. 26F: Huh7 tumor-bearing NU/J mice were treated with clodronate liposomes (CloLipo) and/or C86. […] Two independent experiments were performed with at least three replicates per experimental group. Unpaired t test, two-tailed. FIG. 26G: Murine Hepa 1-6 tumors were implanted subcutaneously into C57BL6/J WT mice or LyMCre:RosadnRAR mice. Expression of the dominant negative RAR in myeloid cells slows tumor growth. Two independent experiments were performed with at least three replicates per experimental group. Unpaired t test, two-tailed. FIG. 26H: Huh7 cells were implanted subcutaneously into NU/J mice. When tumor size reached about 50 mm^3, mice were intraperitoneally injected vehicle (control) or C86 daily with or without BMS493 treatment intratumorally every 3 days. BMS493 and C86 suppress tumor growth with the combination showing higher suppression than monotherapy. *, P<0.05; **, P<0.01; ***, P<0.001; n.s., not significant.
Cultured Huh7, Huh1, Hepa 1-6, Hep55, and FS (as indicated in figure legends) tumor cells were detached using 0.25% trypsin (Gibco, catalog #25200056), washed once with 1×PBS, and counted before implantation. 3~6×10^6 tumor cells were implanted subcutaneously (s.c.) into shaved flanks of recipient mice. Tumor dimensions were measured using a caliper starting at the day indicated in the accompanying figure legend and every two to three days thereafter; volume was calculated by using formula Length*Width^2/2. Tumor volumes of 2,000 mm^3, tumor length of 2 cm or tumor ulceration were used as endpoints for survival analyses.
Compound-86, 97 and 99 powder was dissolved in 20% HPβCD saline (2-Hydroxypropyl)-[…]). Drug was administered i.p. or p.o. starting when tumor volume reached 50-150 mm^3 and repeated every day.

[1] = system: macrophages from primary human monocytes; assay: Numbers of live monocyte-derived macrophages in vitro; type: cell-based; conditions: C86 treated TCM or BMS493; three days
Description: as §3

SNU398 human HCC cells = assay: AldeRed (Aldefluor) assay in SNU398 cells; type: cell-based
Description: The AldeRed assay (EMD Millipore) was performed according to manufacturer's instructions to identify cells with ALDH activity. In brief, single-cell suspensions of Huh7, Huh1, SNU449, SNU398, HEP3B, PLC, Hepa 1-6, Hep55, and AL458A cultured cells or single-cell suspension generated from enzymatic digestion of tumors generated from transplantation of these cells in mice (as indicated in figure legends) were incubated with a fluorescent and non-toxic ALDH substrate (AldeRed 588-A); the fluorescent product accumulates in cells proportional to their ALDH activity. The amount of fluorescence produced is measured by flow cytometry. The ALDH inhibitor diethylaminobenzaldehyde (DEAB, provided with the AldeRed assay kit) was used as a negative control for background fluorescence assessment.
as §2

[2] = system: SNU398 (human HCC cell line); assay: LC-MS for ATRA in SNU398 cells; conditions: C86 100 nmol/L, WIN18446 1,000 nmol/L, 24 hours
[3] = system: Hepa1-6 (mouse HCC cell line); assay: LC-MS for ATRA in Hepa1-6 cells; conditions: 1,000 nmol/L, 24 hours

- IC50 (hALDHIA1): 4 nM
- IC50 (MiaPaCa2 cells): 93 nM
SMILES: N#CC1(c2ccc(-c3c(C(=O)Nc4cnn(CCO)c4)cnc4ccc(F)cc34)cc2)CC1 [Compound C-9163, 4-(4-(1-cyanocyclopropyl)phenyl)-6-fluoro-N-(1-(2-hydroxyethyl)-1H-pyrazol-4-yl)quinoline-3-carboxamide]

SMILES: CC1(C)CC=C(C#Cc2ccccc2)c2cc(/C=C/c3ccc(C(=O)O)cc3)ccc21 [BMS 493, (E)-4-(2-(5,5-dimethyl-8-(phenylethynyl)-5,6-dihydronaphthalen-2-yl)vinyl)benzoic acid, reference compound]
- increase of tumor cell numbers by RA pre-treated macrophages (human HCC lines): this effect was reversed
- tumor mass and volume (Huh7 tumors; intraperitoneal administration, compared to a control (FIGS. 12B-12C)): significant reduction in tumor mass and volume
- RA and tumor-CM induced increase in macrophage numbers [1]: reversed

- IC50 (hALDHIA1): 7 nM
- IC50 (MiaPaCa2 cells): 130 nM
SMILES: N#CC1(c2ccc(-c3c(C(=O)N[C@H]4CC[C@H](O)CC4)cnc4ccc(F)cc34)cc2)CC1 [Compound C-9125, 4-(4-(1-cyanocyclopropyl)phenyl)-6-fluoro-N-((1r,4r)-4-hydroxycyclohexyl)quinoline-3-carboxamide]

SMILES: N#CC1(c2ccccc2)CCN(c2c(C(=O)N[C@H]3CC[C@H](O)CC3)cnc3ccc(F)cc23)CC1 [Compound C-97, 4-(4-cyano-4-phenylpiperidin-1-yl)-6-fluoro-N-((1r,4r)-4-hydroxycyclohexyl)quinoline-3-carboxamide]
- tumor mass and volume (Huh7 tumors; C-86 versus C-97 (FIGS. 17A-17B)): significant reduction in tumor mass and volume
- tumor suppressive activity relative to C-86 (Huh7 tumors; FIGS. 17A-17B): enhanced tumor suppressive activity as compared to C-86
- ALDH activity compared to the DMSO control (SNU398 human HCC cells; SNU398, 1 nM): partial inhibition
- concentration giving essentially complete inhibition of ALDH (SNU398 human HCC cells; SNU398, Aldefluor assay): ≥ 10 nM

SMILES: O=C(NCCCCCCCCNC(=O)C(Cl)Cl)C(Cl)Cl [WIN18446]
- ATRA by LC-MS (RALDH1 inhibition) [2]: inhibits both murine and human RALDH1
- ATRA by LC-MS (RALDH1 inhibition) [3]: inhibits both murine and human RALDH1

- IC50 (hALDHIA1): 6 nM
- IC50 (MiaPaCa2 cells): 12 nM
SMILES: N#CC1(c2ccccc2)CCN(c2c(C(=O)Nc3cnn(CCO)c3)cnc3ccc(F)cc23)CC1 [Compound C-9175, 4-(4-cyano-4-phenylpiperidin-1-yl)-6-fluoro-N-(1-(2-hydroxyethyl)-1H-pyrazol-4-yl)quinoline-3-carboxamide]
